Data taken from patent publication US9920010B2, “CXCR7 receptor modulators” (IDORSIA PHARMACEUTICALS LTD, priority 2013, dated 2018).

What follows are compounds tested against T1, CXCR7 (Homo sapiens, UniProt P25106) (assay: PathHunter CHO-K1 CXCR7 b-arrestin recruitment assay (CXCR7 agonistic activity)). Details: PathHunter CHO-K1 CXCR7 b-arrestin cell line.
T1 construct: host or cells: CHO-K1 (PathHunter CHO-K1 CXCR7 b-arrestin cell line, stably transfected)
Format: cell-based
In short: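 Stable CHO-K1 line with C-terminally ProLink-tagged CXCR7 and β-arrestin 2–EA fusion; β-arrestin recruitment restores β-gal activity, read by chemiluminescence after 1 h RT detection. Cells seeded 24 h, starved in OPTIMEM 3–4 h, exposed to compounds 90 min at 37 °C in HBSS/HEPES/BSA. Geometric-mean EC50 from repeated measurements.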

T1 sequence (P25106 whole entry): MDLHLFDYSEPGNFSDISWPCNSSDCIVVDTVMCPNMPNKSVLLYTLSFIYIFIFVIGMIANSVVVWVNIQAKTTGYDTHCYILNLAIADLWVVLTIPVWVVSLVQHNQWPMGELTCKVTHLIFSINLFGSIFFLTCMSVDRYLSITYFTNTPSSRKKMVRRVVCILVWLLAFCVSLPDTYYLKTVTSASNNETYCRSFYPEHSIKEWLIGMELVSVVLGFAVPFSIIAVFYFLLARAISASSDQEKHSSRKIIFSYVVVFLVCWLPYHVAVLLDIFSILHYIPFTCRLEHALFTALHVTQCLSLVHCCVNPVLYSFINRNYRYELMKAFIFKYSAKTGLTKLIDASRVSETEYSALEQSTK
T1 sequence (P32121 whole entry partner): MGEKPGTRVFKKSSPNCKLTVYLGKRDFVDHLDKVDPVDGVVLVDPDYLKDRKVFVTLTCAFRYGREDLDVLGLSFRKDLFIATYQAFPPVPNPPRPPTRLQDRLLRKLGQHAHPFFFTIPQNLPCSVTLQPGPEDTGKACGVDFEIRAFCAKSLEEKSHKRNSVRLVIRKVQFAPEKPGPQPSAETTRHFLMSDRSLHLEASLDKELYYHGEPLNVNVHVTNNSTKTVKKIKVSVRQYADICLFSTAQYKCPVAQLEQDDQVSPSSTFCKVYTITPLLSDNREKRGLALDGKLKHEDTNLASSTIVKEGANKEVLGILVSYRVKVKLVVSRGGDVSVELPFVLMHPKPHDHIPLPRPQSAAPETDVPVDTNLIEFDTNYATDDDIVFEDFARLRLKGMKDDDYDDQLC

Q: Which EC50 does the source give for CCC(=O)N1CCc2c(cccc2NCC(=O)N(Cc2ccccc2)Cc2nccn2C)C1 [Example 26, N-Benzyl-N-(1-methyl-1H-imidazol-2-ylmethyl)-2-(2-propionyl-1,2,3,4-tetrahydro-isoquinolin-5-ylamino)-acetamide] here?
A: The EC50 was 442 nM.

Q: For CCC(=O)N1CCc2c(cccc2NCC(=O)N(CCN(CC)CC)Cc2ccccc2)C1 [Example 27, N-Benzyl-N-(2-diethylamino-ethyl)-2-(2-propionyl-1,2,3,4-tetrahydro-isoquinolin-5-ylamino)-acetamide], which EC50 is on record?
A: Its EC50 is 19 nM.

Q: For CCC(=O)N1CCc2c(cccc2NCC(=O)N(CCN(C)C)Cc2ccccc2OC)C1 [Example 28, N-(2-Dimethylamino-ethyl)-N-(2-methoxy-benzyl)-2-(2-propionyl-1,2,3,4-tetrahydro-isoquinolin-5-ylamino)-acetamide], which EC50 is on record?
A: Its EC50 is 63 nM.

Q: How did the EC50 turn out when CCC(=O)N1CCc2c(cccc2NCC(=O)N(CCN(C)C)Cc2cccc(OC)c2)C1 [Example 29, N-(2-Dimethylamino-ethyl)-N-(3-methoxy-benzyl)-2-(2-propionyl-1,2,3,4-tetrahydro-isoquinolin-5-ylamino)-acetamide] was run?
A: The EC50 was 174 nM.

Q: How did the EC50 turn out when CCC(=O)N1CCc2c(cccc2NCC(=O)N(CCN(C)C)Cc2ccc(OC)cc2)C1 [Example 30, N-(2-Dimethylamino-ethyl)-N-(4-methoxy-benzyl)-2-(2-propionyl-1,2,3,4-tetrahydro-isoquinolin-5-ylamino)-acetamide] was run?
A: The EC50 was 283 nM.

Q: For CCCCN(C)CCN(Cc1ccccc1)C(=O)CNc1cccc2c1CCN(C(=O)CC)C2 [Example 31, N-Benzyl-N-[2-(butyl-methyl-amino)-ethyl]-2-(2-propionyl-1,2,3,4-tetrahydro-isoquinolin-5-ylamino)-acetamide], which EC50 is on record?
A: Its EC50 is 13 nM.

Q: How did the EC50 turn out when CCC(=O)N1CCc2c(cccc2NCC(=O)N(CCN(C)C)Cc2cccc(C(F)(F)F)c2)C1 [Example 33, N-(2-Dimethylamino-ethyl)-2-(2-propionyl-1,2,3,4-tetrahydro-isoquinolin-5-ylamino)-N-(3-trifluoromethyl-benzyl)-acetamide] was run?
A: Its EC50 is 16 nM.

Q: How did the EC50 turn out when CCC(=O)N1CCc2c(cccc2NCC(=O)N(CCN(C)C)Cc2ccc(C(F)(F)F)cc2)C1 [Example 34, N-(2-Dimethylamino-ethyl)-2-(2-propionyl-1,2,3,4-tetrahydro-isoquinolin-5-ylamino)-N-(4-trifluoromethyl-benzyl)-acetamide] was run?
A: The EC50 was 132 nM.

Q: CCC(=O)N1CCc2c(cccc2NCC(=O)N(CCN(C)C)Cc2ccccc2C(F)(F)F)C1 [Example 35, N-(2-Dimethylamino-ethyl)-2-(2-propionyl-1,2,3,4-tetrahydro-isoquinolin-5-ylamino)-N-(2-trifluoromethyl-benzyl)-acetamide] was tested. Which EC50 did it give?
A: Its EC50 is 4 nM.

Q: Which EC50 does the source give for CN(C)CCN(CCc1ccccc1)C(=O)CNc1cccc2c1CCN(CC1CC1)C2 [Example 36, 2-(2-Cyclopropylmethyl-1,2,3,4-tetrahydro-isoquinolin-5-ylamino)-N-(2-dimethylamino-ethyl)-N-phenethyl-acetamide] here?
A: Its EC50 is 25 nM.

Q: How did the EC50 turn out when CN(C)CCCN(Cc1ccccc1)C(=O)CNc1cccc2c1CCN(CC1CC1)C2 [Example 37, N-Benzyl-2-(2-cyclopropylmethyl-1,2,3,4-tetrahydro-isoquinolin-5-ylamino)-N-(3-dimethylamino-propyl)-acetamide] was run?
A: Its EC50 is 4 nM.

Q: CN(C)CCN(Cc1ccccc1F)C(=O)CNc1cccc2c1CCN(CC1CC1)C2 [Example 38, 2-(2-Cyclopropylmethyl-1,2,3,4-tetrahydro-isoquinolin-5-ylamino)-N-(2-dimethylamino-ethyl)-N-(2-fluoro-benzyl)-acetamide] was tested. Which EC50 did it give?
A: The EC50 was 3 nM.

Q: With CN(C)CCN(Cc1ncccc1Cl)C(=O)CNc1cccc2c1CCN(CC1CC1)C2 [Example 39, N-(3-Chloro-pyridin-2-ylmethyl)-2-(2-cyclopropylmethyl-1,2,3,4-tetrahydro-isoquinolin-5-ylamino)-N-(2-dimethylamino-ethyl)-acetamide] as the compound, how does the EC50 read?
A: The EC50 was 4 nM.
